From patent publication US7276528B2, “Compounds for the inhibition of nitric oxide synthase” (AstraZeneca AB, priority 2001, dated 2007)
Structures can show the parent of a compound that is named as a salt.

What was measured:
Type in all cases: biochemical
Details in all cases: recombinant human enzyme expressed in E. coli; 60 min pre-incubation with NADPH; 3 μM [3H]arginine
[1] = target: T1, Recombinant human nNOS (Homo sapiens, UniProt P29475); test: Screen 2: recombinant human NO synthase inhibition, L-[3H]citrulline formation (nNOS)
T1 construct: made in house; host or cells: E. coli (lysate)
Description: (§1) Recombinant human NO synthases (iNOS, eNOS & nNOS) were expressed in E. coli and lysates were prepared in Hepes buffer (pH 7.4) containing co-factors (FAD, FMN, H4B), protease inhibitors, lysozyme and the detergent, CHAPS. These preparations were used, at suitable dilution, to assess inhibition of the various isoforms. Inhibition of NOS was determined by measuring the formation of L-[^3H]citrulline from L-[^3H]arginine using an adaptation of the method of Förstermann et al. Enzyme assays were performed in the presence of 3 μM [^3H]arginine, 1 mM NADPH and other co-factors required to support NOS activity (FAD, FMN, H4B, calmodulin, Ca^2+). […] Incubations continued for a further 60 min before the assays were quenched and [^3H]citrulline separated from unreacted substrate by chromatography on Dowex-50 W resin in a 96-well format.

[2] = target: T2, Recombinant human eNOS (Homo sapiens, UniProt P29474); test: Screen 2: recombinant human NO synthase inhibition, L-[3H]citrulline formation (eNOS)
T2 construct: made in house; host or cells: E. coli (lysate)

[3] = target: T3, Recombinant human iNOS (Homo sapiens, UniProt P35228); test: Screen 2: recombinant human NO synthase inhibition, L-[3H]citrulline formation (iNOS)
T3 construct: made in house; host or cells: E. coli (lysate)
Description: as §1

T3 sequence (P35228 whole entry): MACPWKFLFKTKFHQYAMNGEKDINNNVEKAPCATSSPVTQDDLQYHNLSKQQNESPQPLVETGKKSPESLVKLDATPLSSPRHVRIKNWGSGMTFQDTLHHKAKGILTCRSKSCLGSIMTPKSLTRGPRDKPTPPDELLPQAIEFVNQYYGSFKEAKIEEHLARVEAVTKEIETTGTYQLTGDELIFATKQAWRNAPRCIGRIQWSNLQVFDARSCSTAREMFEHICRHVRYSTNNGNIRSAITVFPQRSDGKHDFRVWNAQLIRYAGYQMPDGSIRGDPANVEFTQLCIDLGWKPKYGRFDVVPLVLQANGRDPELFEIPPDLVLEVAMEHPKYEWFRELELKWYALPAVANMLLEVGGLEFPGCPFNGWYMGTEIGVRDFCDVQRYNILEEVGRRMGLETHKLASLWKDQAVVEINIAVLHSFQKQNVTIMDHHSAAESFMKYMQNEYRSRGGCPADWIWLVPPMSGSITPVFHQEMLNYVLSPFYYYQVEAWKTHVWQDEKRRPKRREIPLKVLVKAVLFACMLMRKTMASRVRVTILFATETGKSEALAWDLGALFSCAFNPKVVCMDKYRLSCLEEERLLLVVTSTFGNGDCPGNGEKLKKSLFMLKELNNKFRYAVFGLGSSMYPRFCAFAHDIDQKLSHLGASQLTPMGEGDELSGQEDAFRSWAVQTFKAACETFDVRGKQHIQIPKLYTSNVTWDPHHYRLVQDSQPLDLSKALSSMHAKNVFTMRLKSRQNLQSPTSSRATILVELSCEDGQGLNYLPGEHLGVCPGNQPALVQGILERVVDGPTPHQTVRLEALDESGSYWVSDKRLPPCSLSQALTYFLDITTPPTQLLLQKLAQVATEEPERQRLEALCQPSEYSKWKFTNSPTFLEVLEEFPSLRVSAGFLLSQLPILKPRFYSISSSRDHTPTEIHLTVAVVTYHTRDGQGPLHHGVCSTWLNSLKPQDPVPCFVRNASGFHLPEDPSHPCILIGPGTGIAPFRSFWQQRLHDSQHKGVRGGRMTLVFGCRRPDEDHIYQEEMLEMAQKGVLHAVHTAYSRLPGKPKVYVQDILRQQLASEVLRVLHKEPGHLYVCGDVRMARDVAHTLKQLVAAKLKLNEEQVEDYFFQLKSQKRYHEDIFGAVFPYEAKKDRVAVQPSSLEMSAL
T1 sequence (P29475 whole entry): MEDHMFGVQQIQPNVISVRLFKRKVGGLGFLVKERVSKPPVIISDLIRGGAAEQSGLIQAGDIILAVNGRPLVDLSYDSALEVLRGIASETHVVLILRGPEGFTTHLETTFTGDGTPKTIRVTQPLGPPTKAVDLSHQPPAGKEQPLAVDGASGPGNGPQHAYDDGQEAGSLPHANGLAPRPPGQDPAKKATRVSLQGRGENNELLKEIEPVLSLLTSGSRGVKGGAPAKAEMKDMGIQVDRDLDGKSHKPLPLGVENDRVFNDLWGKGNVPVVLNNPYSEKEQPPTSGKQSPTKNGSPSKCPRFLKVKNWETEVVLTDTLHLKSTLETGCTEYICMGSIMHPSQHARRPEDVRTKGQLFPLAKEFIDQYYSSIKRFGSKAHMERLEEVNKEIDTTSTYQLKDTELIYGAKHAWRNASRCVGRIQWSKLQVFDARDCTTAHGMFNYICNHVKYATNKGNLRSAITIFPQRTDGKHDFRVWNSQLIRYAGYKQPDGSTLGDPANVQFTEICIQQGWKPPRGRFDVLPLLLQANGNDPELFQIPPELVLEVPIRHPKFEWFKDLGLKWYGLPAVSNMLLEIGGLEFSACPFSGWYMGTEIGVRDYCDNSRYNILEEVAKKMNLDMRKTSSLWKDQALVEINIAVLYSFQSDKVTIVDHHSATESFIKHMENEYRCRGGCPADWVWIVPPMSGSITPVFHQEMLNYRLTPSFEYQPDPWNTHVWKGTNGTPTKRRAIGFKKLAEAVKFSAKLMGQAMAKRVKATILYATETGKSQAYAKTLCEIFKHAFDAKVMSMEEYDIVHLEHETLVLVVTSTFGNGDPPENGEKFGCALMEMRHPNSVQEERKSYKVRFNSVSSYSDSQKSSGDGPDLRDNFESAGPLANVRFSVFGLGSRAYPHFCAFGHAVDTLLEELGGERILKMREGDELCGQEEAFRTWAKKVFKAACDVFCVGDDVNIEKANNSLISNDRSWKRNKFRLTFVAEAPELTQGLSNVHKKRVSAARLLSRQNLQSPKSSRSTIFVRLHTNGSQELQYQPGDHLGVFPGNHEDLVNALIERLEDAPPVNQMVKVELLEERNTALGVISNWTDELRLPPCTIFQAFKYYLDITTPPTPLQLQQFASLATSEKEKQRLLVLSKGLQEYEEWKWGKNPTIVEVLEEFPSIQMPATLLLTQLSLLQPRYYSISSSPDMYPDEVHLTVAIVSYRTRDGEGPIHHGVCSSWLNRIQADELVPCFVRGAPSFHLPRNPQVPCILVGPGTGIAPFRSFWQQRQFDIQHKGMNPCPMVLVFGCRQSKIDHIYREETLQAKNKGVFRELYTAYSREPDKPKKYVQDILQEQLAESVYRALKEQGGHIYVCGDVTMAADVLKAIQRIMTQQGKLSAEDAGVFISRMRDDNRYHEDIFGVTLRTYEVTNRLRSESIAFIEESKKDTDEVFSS
T2 sequence (P29474 whole entry): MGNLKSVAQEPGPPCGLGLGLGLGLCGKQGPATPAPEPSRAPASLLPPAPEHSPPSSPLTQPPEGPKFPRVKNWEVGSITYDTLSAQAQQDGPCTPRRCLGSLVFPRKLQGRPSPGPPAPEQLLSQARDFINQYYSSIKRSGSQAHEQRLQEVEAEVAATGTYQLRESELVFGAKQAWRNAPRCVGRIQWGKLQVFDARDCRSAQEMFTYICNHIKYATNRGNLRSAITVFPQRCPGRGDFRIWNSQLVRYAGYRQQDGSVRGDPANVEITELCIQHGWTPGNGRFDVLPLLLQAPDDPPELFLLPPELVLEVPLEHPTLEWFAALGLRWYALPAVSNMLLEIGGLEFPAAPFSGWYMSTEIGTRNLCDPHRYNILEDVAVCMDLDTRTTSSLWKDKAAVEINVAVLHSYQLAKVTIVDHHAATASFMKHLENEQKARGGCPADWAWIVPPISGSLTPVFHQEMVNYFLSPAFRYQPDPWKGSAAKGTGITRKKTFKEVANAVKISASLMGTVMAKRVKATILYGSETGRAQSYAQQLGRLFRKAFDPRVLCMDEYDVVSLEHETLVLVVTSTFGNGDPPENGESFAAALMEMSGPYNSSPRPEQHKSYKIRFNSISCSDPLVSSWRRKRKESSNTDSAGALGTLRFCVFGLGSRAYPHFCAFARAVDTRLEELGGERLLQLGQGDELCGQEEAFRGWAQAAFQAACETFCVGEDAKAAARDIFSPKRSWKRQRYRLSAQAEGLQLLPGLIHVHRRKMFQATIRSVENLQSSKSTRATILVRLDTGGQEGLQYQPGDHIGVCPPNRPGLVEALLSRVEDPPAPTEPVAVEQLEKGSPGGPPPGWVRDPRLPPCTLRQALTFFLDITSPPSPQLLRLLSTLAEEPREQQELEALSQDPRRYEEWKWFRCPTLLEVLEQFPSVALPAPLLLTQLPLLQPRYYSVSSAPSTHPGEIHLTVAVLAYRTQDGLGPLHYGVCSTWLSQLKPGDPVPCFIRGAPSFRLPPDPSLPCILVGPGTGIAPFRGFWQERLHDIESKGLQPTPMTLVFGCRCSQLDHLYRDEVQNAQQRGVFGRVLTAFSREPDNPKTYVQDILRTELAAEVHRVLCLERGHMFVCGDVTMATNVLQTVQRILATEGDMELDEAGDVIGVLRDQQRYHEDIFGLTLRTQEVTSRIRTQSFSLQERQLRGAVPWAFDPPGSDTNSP

Row | IC50 [1] [µM] | IC50 [2] [µM] | IC50 [3] [µM] | SMILES
1 | 0.0048 | 0.34 | 0.0029 | CNCc1cccc(Oc2cc(Cl)ccc2C#N)c1 [Example 10, 4-Chloro-2-(3-methylaminomethyl-phenoxy)-benzonitrile fumarate]
2 | 0.039 | 5.4 | 0.16 | CNCc1ccc(Oc2cc(Cl)ccc2C#N)c2ccccc12 [Example 24, 4-Chloro-2-[4-(methylaminomethyl)naphthalen-1-yloxy]benzonitrile fumarate]
3 | 0.2 | 44 | 0.09 | CN(C)Cc1cccc(Oc2cc(Cl)ccc2C#N)c1 [Example 25, 4-Chloro-2-[3-(dimethylaminomethyl)phenoxy]benzonitrile fumarate]
